Laboratory results: patent publication US20220202818A1, “COMBINATION WITH CHECKPOINT INHIBITORS TO TREAT CANCER” (The Regents of the University of Michigan, priority 2019, published 2022)

How the values were obtained:
KPC pancreatic tumors = experiment: In vivo efficacy of MOL-211 alone and with PD-1 antibody in mice bearing KPC pancreatic tumors
Method: In vivo studies were conducted to evaluate the efficacy of MOL-211 alone and in combination with PD-1 antibody in mice bearing KPC pancreatic tumors (FIG. 1A-FIG. 1E). Mice were treated daily with MOL-211 (50 mg/kg) administered by oral gavage; anti-PD-1 antibody was administered twice a week via IP injection. Mice were analyzed subsequent to tumor implantation for over 90 days using a vehicle control; MOL-211 at 50 mg/kg; anti-PD-1 antibody at 10 mg/kg; and a combination of MOL-211 and anti-PD-1.
A partial responder (PR) is defined as a tumor that regressed to 50% of the baseline tumor volume. A complete responder (CR) is defined as a tumor below the limits of palpation (40 mg). The ΔT/ΔC ratio is the ratio of tumor volume change (treated/control) from first day of treatment to last day of treatment. Median ILS represents median increase in lifespan.

[1] = test system: SCC7 head and neck tumors; experiment: In vivo study in C3H mice bearing SCC7 head and neck tumors
Method: (§1) Female 6- to 7-week old C3H mice or BALB/c mice were implanted subcutaneously with 1×10^6 cultured SCC7 cells or CT-26 (murine colorectal carcinoma) cells into the region of the right axilla. Female 6- to 7-week old BALB/c mice were implanted with 2×10^6 cultured EMT-6 (murine mammary carcinoma) cells subcutaneously into the mammary fat pad. Mice were randomized into treatment groups and treatments initiated when tumors reached 60 to 100 mg. MOL-211 was administered daily by oral gavage at a dose of 50 mg/kg for the duration of the study and was prepared as a 5 mg/mL solution in 1:2 PG:1% Tween80/Na3PO4, based upon individual animal body weight (0.2 mL/20 g). PD-1 antibody was purchased from BioXcell (Lebanon, N.H.) and administered intraperitoneally (IP) at a dose of 10 mg/kg every third day. Subcutaneous tumor volume and body weights were measured three times a week. Tumor volumes were calculated by measuring two perpendicular diameters with calipers and using the formula: tumor volume=(length×width^2)/2. Individual animals were dosed until progression, defined as the time at which tumor burden reached 1000 mg. […] Animal body weight was monitored three times weekly (FIG. 4D, FIG. 5D, FIG. 6C).

[2] = test system: CT-26 (murine colorectal carcinoma) tumors; experiment: In vivo study in BALB/c mice bearing CT-26 (murine colorectal carcinoma) tumors; conditions: FIG. 5A
Method: as §1

[3] = test system: EMT-6 (murine mammary carcinoma) tumors; experiment: In vivo study in female BALB/c mice bearing EMT-6 (murine mammary carcinoma) tumors; conditions: EMT-6 tumor-bearing mice; FIG. 6B
Method: as §1

PD-L1 = experiment: Western blot of PD-L1 protein in KPC-2 cells treated in vitro; type: cell-based; conditions: KPC-2 cells in culture; 10 micromolar; 24 and 48 hours; compared to DMSO
Method: KPC-2 cells were also grown in culture and treated for either 24 or 48 hours with DMSO or MOL-211 at a final concentration of 10 micromolar. Cells were harvested and manually homogenized in lysis buffer [25 mmol/L Tris-HCl (pH7.6), 150 mmol/L NaCl, 1% Nonidet P-40, 10% glycerol, 1 mmol/L dithiothreitol, and protease and phosphatase inhibitors], rocked for 30 minutes at 4° C., and centrifuged at 14,000 rpm for 20 min at 4° C. Protein concentration was determined by BioRad Protein Assays and lysates were subsequently subjected to SDS gel electrophoresis. Proteins were transferred to polyvinylidene fluoride membranes and probed with a primary antibody recognizing PD-L1 (Abcam, Cambridge, UK) and beta-actin. After incubation with anti-rabbit HRP-linked secondary antibody (Jackson ImmunoResearch Laboratories, West Grove, Pa.), proteins were detected using chemiluminescence (GE Healthcare, Chicago, Ill.).

## CS(=O)(=O)Nc1cc(-c2ccc3ncnc(Nc4ccc(F)c(Cl)c4)c3c2)cnc1Cl [MOL-211, N-(2-chloro-5-(4-((3-chloro-4-fluorophenyl)amino)quinazolin-6-yl)pyridin-3-yl)methanesulfonamide]
KPC pancreatic tumors
  Median ILS (median increase in lifespan): 82%
KPC pancreatic tumors; ratio of tumor volume change (treated/control) from first to last day of treatment, MOL-211 50 mg/kg daily oral gavage, PD-1 antibody 10 mg/kg/kg IP
  ΔT/ΔC (Day 19): 21%
KPC pancreatic tumors; tumor below the limits of palpation (40 mg)
  CRs (complete responders): 0%
KPC pancreatic tumors; tumor regressed to 50% of baseline tumor volume
  PRs (partial responders): 0
[1]; C3H mice bearing SCC7 tumors, MOL-211 50 mg/kg, PD-1 antibody 10 mg/kg, FIG. 4A
  calculated increase in lifespan (ILS): 206%
[1]; mice bearing SCC7 tumors, compared with PD-1 antibody monotherapy, FIG. 4B
  reduction in mean tumor volumes: superior to PD-1 antibody monotherapy
[2]; BALB/c mice bearing CT-26 tumors, MOL-211 50 mg/kg, PD-1 antibody 10 mg/kg
  calculated increase in lifespan (ILS): 22%
[2]; mice bearing CT-26 tumors
  increase in survival: Neither single agent nor combination treatment with MOL-211 and PD-1 antibody resulted in a therapeutically meaningful increase in survival
[3]
  reduction in tumor volume compared to vehicle control: did not result in a statistically significant reduction in tumor volume
PD-L1
  PD-L1 protein levels (western blot): reduced PD-L1 protein levels
